Measurements taken from publication PMC6470533, “Structure–Activity Study, Characterization, and Mechanism of Action of an Antimicrobial Peptoid D2 and Its D- and L-Peptide Analogues” (Molecules, 2019).
In brackets after ≈: the same amount, converted by molar mass. Non-standard residues stand in square brackets, D forms with d. Residues, ends and D or L forms follow the SMILES beside them. No end group written: not given here. N(1-naphthylmethyl)Gly = O=C(O)CNCc1cccc2ccccc12; 1Nal = N[C@@H](Cc1cccc2ccccc12)C(=O)O; d1Nal = N[C@H](Cc1cccc2ccccc12)C(=O)O; N(4-MeBn)Gly = Cc1ccc(CNCC(=O)O)cc1; Gly(N-CH2CH2OH) = O=C(O)CNCCO; dNle = CCCC[C@@H](N)C(=O)O; Nle = CCCC[C@H](N)C(=O)O; NBuGly = CCCCNCC(=O)O; Nlys = NCCCCNCC(=O)O

Experiments:
[1] = system: Methicillin sensitive Staphylococcus pseudintermedius (26916); type: cell-based; conditions: 18 h
[2] = system: Methicillin resistant Staphylococcus pseudintermedius, (C22963); type: cell-based; conditions: 18 h
[3] = system: Staphylococcus aureus (ATCC 29213); type: cell-based; conditions: ATCC 29213, 18 h
[4] = system: Pseudomonas aeruginosa (ATCC 27853); type: cell-based; conditions: ATCC 27853, 18 h
Experimental: To explore the antimicrobial activity of the library of peptides and peptidomimetics, they were tested against Acinetobacter baumannii, Corynebacterium auriscanis, Escherichia coli, Enterococcus faecalis, Enterococcus faecium, Klebsiella pneumonia, Proteus mirabilis, and Pseudomonas aeruginosa. Bacteria grown on agar plates for 18 h at 37 °C were diluted to ~1 × 10^8 CFU/mL in Mueller–Hinton broth (MHB). Two-fold serial dilutions of peptides and peptidomimetics in MHB II were inoculated with bacteria to achieve a final concentration of 5 × 10^5 CFU/mL in polypropylene 96 U-well microtiter plates (Almeco, Esbjerg, Denmark), followed by incubation at 37 °C in ambient air for 18 h. The MIC values were determined as the lowest concentration showing no visible bacterial growth. Experiments were performed twice (in technical triplicates) on two different days.

[5] = system: DNA synthesis in MRSP E104; assay: Macromolecule biosynthesis assay, DNA (3H-thymidine); type: cell-based, Staphylococcus pseudintermedius; conditions: 0.5× MIC, 20 min incubation, MRSP E104, 3H-thymidine; means of two experiments
Experimental: (§1) The effect on DNA and cell wall synthesis was investigated after 20 min of incubation of MRSP E104 with the precursors ^3H-thymidine and ^3H-glucosamine hydrochloride, respectively, as previously reported by Ling et al.. Following macromolecule precipitation, radioactivity was counted using scintillation fluid. Incorporation of ^3H- or ^14C-labeled thymidine has been used to investigate DNA replication and transcriptional activity during the cell cycle; ^3H-glucosamine hydrochloride has been used in a mode of action study for the antimicrobial peptide plectasin, which targets the cell wall precursor lipid II [44].
(§2) Macromolecules (DNA and cell wall) biosynthesis rates were measured using strain MRSP E104 following a protocol adapted from Ling et al.. Briefly, overnight culture of E104 was diluted 1:100 in MHB and freshly grown up to OD 0.2 at 600 nm. Grown cells were pelleted down by centrifugation and then resuspended in fresh MHB medium followed by incubation for 20 min on a dry heat-bath with D2 or analogues or nisin and radiolabeled precursor: (50 µCi) ^3H-Thymidine (PerkinElmer) and (5 µCi) ^3H-glucosamine hydrochloride per mL for DNA and cell wall, respectively. A positive control without antimicrobials was maintained that corresponds to 100% synthesis rate. After 20 min of incubation, samples were precipitated with equal volume of cold 30% trichloroactic acid (TCA Sigma, Søborg, Denmark) on ice. After 15 to 30 min of incubation on ice, precipitates were filtered on a membrane filter and subsequently washed twice with cold 15% TCA and twice with cold water using a vacuum manifold. Next, filters were air dried overnight and then moved to 10 mL scintillation vials. Finally, 3 mL scintillation fluid was added to each vial and ^3H count was taken in Beckman Coulter LS6500 liquid scintillation counter for 1 min. The radioactive counts of the control samples with no antimicrobial exposure were considered to have 100% precursor incorporation and macromolecule synthesis. The percentage rates of macromolecule synthesis in the antimicrobial-exposed samples were calculated compared to control. Each experiment was performed twice with a technical replicate, and the average rates of synthesis were plotted.

[6] = system: cell wall synthesis in MRSP E104; assay: Macromolecule biosynthesis assay, cell wall (3H-glucosamine hydrochloride); type: cell-based, Staphylococcus pseudintermedius; conditions: 0.5× MIC, 20 min incubation, MRSP E104, 3H-glucosamine hydrochloride; means of two experiments
Experimental: as §1, §2

[7] = system: membrane proton motive force of E104 cells; assay: DiSC3(5) fluorescence, membrane depolarization; type: cell-based, Staphylococcus pseudintermedius; conditions: 0.5× MIC, n = 2
From the text: In this study, the DiSC3(5) probe was used to assess the effect of D2 and its structural analogues D2L, D2D, and D2R on cytoplasmic membrane depolarization. DiSC3(5) is a cationic carbocyanine dye, which accumulates on negatively charged membrane, translocates into lipid membrane with a distribution dependent on plasma and mitochondrial membrane potential. Altered emission profile of DiSC3(5) measured via fluorescence spectroscopy indicates membrane depolarization caused by proton motive force dissipation, ATP production and/or pore formation. The increment of DiSC3(5) fluorescence of labeled cells resulting from its leakage upon addition of antimicrobial agents is usually measured over time. The protonophore carbonyl cyanide metachlorophenyl hydrazone (CCCP) is used as positive control, which rapidly dissipates PMF increasing proton permeability, alters both membrane proton gradient and transmembrane electric potential and decreases cellular ATP content. Based on the MIC and growth analysis results, sub-lethal concentrations of D2 and selected analogues were chosen to perform DiSC3(5) fluorescence and macromolecule biosynthesis studies.
Freshly grown E104 cells with OD 0.2 at 600 nm were labeled with 1 µM 3,3-dipropylthiadicarbocyanine iodide [DiSC3(5)] (Sigma-Aldrich, Søborg, Denmark) in MHB. The fluorescence spectra of fluorophore-labeled cells were plotted using the LS-50B luminescence spectrometer (PerkinElmer, Waltham, MA, USA) at excitation/emission wavelengths 546 nm/573 nm using time drive application of FLWINLAB software. After reading initial stable emission spectra of DiSC3(5), labeled cells were exposed with D2 or analogues or nisin or protonophore CCCP by directly injecting the concentrated solution of agent to the cuvette, and the change of fluorescence over time was recorded until emission spectra reached to stability. The increment of DiSC3(5) fluorescence upon addition of antimicrobials or CCCP (FUafter-exposure – FUbefore-exposure) was calculated and plotted in addition to raw fluorescence spectra. Experiment was performed twice and average fluorescence change was plotted with standard deviation.

[8] = system: MRSP ST71 strain E104; assay: Growth curve analysis (BioScreen); type: cell-based, Staphylococcus pseudintermedius; conditions: at the MIC, MRSP E104, OD600, 6 h, 37 °C
Experimental: First, we performed growth curve analysis using the well-characterized MRSP ST71 strain E104, which is resistant to a number of antibiotics. […] A well-characterized antimicrobial peptide, nisin, was used as control. […] Increased concentrations of nisin inhibited proportionally the growth of E104, both at sub-MIC and MIC concentrations.
The effect of D2 or analogues or nisin on the growth of MRSP strain E104 was evaluated using BioScreen (Oy Growth Curves Ab LTd, Helsinki, Finland). Freshly grown culture of E104 was diluted to OD 0.2 at 600 nm, supplemented with increased concentration of antimicrobials and distributed in a 100 well honeycomb micro-plate with volume 100 μL. The plate was incubated for 6 h at 37 °C with continuous shaking. The OD600 of each micro-culture was measured and recorded every 15 min after a 5 s pause of shaking in automatic mode. Recorded OD was plotted against time to prepare the growth curves. Experiment was performed twice and one representative result was presented.

[9] = system: red blood cell (RBC); conditions: 0.5% RBC suspension in PBS, 1 h, 37 °C, read at 414 nm, normalized to mellitin and PBS, triplicates
Experimental: Briefly, 75 µL of peptide in PBS was mixed with 75 µL of a 0.5% red blood cell (RBC) suspension in PBS, and incubated for 1 h at 37 °C. The hemoglobin release was then measured at 414 nm and normalized, using mellitin as positive control and PBS as negative control. Experiments were done in triplicates.

[10] = system: S. aureus; design: method as in PMID 28262682; conditions: cited from earlier work

With CCCC[C@H](NC(=O)[C@H](CCCCN)NC(=O)[C@H](Cc1cccc2ccccc12)NC(=O)[C@H](CCCCN)NC(=O)[C@H](Cc1ccccc1)NC(=O)[C@H](Cc1cccc2ccccc12)NC(=O)[C@H](CCCCN)NC(=O)[C@@H](N)CCCCN)C(N)=O [D2L] (H-KK[1Nal]FK[1Nal]K[Nle]-NH2; N-terminus assumed) the “MIC MSSP” value [1] was 16 µg/mL (≈ 13.5 µM), the “MIC MRSP” value [2] was 8 µg/mL (≈ 6.75 µM) and the “MIC SA” value [3] was 32 µg/mL (≈ 27 µM). The “MIC PA” value [4] was 16 µg/mL (≈ 13.5 µM), the “inhibition of DNA biosynthesis rate” value [5] was 17% and the “effect on (inhibition of) cell wall synthesis” value [6] was 31%. The “effect on PMF (membrane depolarization, DiSC3(5) fluorescence)” value (“effect on PMF” for short) [7] was “strongest effect on PMF”, the “growth curve, change of cell optical density over time” value [8] was “cell lysis” and the “HA, percentage of hemolysis at 150 µM” value [9] was 35%.
With CCCC[C@H](N)C(=O)N[C@@H](CCCCN)C(=O)N[C@@H](Cc1cccc2ccccc12)C(=O)N[C@@H](CCCCN)C(=O)N[C@@H](Cc1ccccc1)C(=O)N[C@@H](Cc1cccc2ccccc12)C(=O)N[C@@H](CCCCN)C(=O)N[C@@H](CCCCN)C(N)=O [D2R] (H-[Nle]K[1Nal]KF[1Nal]KK-NH2; N-terminus assumed) the “MIC MSSP” value [1] was 16 µg/mL (≈ 13.5 µM), the “MIC MRSP” value [2] was 4 µg/mL (≈ 3.38 µM) and the “MIC SA” value [3] was 32 µg/mL (≈ 27 µM). For the same molecule, the “MIC PA” value [4] was 32 to 64 µg/mL, the “inhibition of DNA biosynthesis rate” value [5] was less than 5% and the “effect on (inhibition of) cell wall synthesis” value [6] was 22%. The “effect on PMF” value [7] was “strongest effect on PMF”, the “growth curve, change of cell optical density over time” value [8] was “cell lysis” and the “HA, percentage of hemolysis at 150 µM” value [9] was 23%.
In the case of CCCCN(CC(N)=O)C(=O)CN(CCCCN)C(=O)CN(Cc1cccc2ccccc12)C(=O)CN(Cc1cccc2ccccc12)C(=O)CN(Cc1ccc(C)cc1)C(=O)CN(Cc1cccc2ccccc12)C(=O)CN(CCCCN)C(=O)CNCCCCN [compound 11] (H-[Nlys][Nlys][N(1-naphthylmethyl)Gly][N(4-MeBn)Gly][N(1-naphthylmethyl)Gly][N(1-naphthylmethyl)Gly][Nlys][NBuGly]-NH2; N-terminus assumed), the “MIC MSSP” value [1] is reported as 8 µg/mL (≈ 6.31 µM), the “MIC MRSP” value [2] is reported as 8 µg/mL (≈ 6.31 µM) and the “MIC SA” value [3] is reported as 8 µg/mL (≈ 6.31 µM). For the same molecule, the “MIC PA” value [4] was 16 µg/mL (≈ 12.6 µM) and the “HA, percentage of hemolysis at 150 µM” value [9] was 87%.
For CCCCN(CC(N)=O)C(=O)CN(CCCCN)C(=O)CN(Cc1cccc2ccccc12)C(=O)CN(CCO)C(=O)CN(Cc1ccc(C)cc1)C(=O)CN(Cc1cccc2ccccc12)C(=O)CN(CCCCN)C(=O)CNCCCCN [compound 12] (H-[Nlys][Nlys][N(1-naphthylmethyl)Gly][N(4-MeBn)Gly][Gly(N-CH2CH2OH)][N(1-naphthylmethyl)Gly][Nlys][NBuGly]-NH2; N-terminus assumed), the “MIC MSSP” value [1] was 8 µg/mL (≈ 6.83 µM), the “MIC MRSP” value [2] was 8 µg/mL (≈ 6.83 µM) and the “MIC SA” value [3] was 32 µg/mL (≈ 27.3 µM). The “MIC PA” value [4] was greater than 64 µg/mL and the “HA, percentage of hemolysis at 150 µM” value [9] was 5%.
In the case of CCCC[C@@H](NC(=O)[C@@H](CCCCN)NC(=O)[C@@H](Cc1cccc2ccccc12)NC(=O)[C@@H](CCCCN)NC(=O)CN(Cc1ccc(C)cc1)C(=O)CN(Cc1cccc2ccccc12)C(=O)CN(CCCCN)C(=O)CNCCCCN)C(N)=O [compound 13] (H-[Nlys][Nlys][N(1-naphthylmethyl)Gly][N(4-MeBn)Gly][dK][d1Nal][dK][dNle]-NH2; N-terminus assumed), the “MIC MSSP” value [1] is reported as 4 µg/mL (≈ 3.34 µM), the “MIC MRSP” value [2] is reported as 4 µg/mL (≈ 3.34 µM) and the “MIC SA” value [3] is reported as 8 µg/mL (≈ 6.67 µM). The “MIC PA” value [4] was 8 µg/mL (≈ 6.67 µM) and the “HA, percentage of hemolysis at 150 µM” value [9] was 34%.
In the case of KLKLLLLLKLK-NH2, the “antimicrobial activity (MIC) against S. aureus” value [10] is listed as 16 µg/mL.
With “nisin (ITSISLCTPGCKTGALMGCNMKTATCHCSIHVSK; also: lantibiotic: lanthionine rings and dehydro residues, places not given here; UniProt P13068 24-57, looked up) [well-characterized antimicrobial peptide used as control, reference compound]” the “inhibition of DNA biosynthesis rate” value [5] was 45% and the “effect on PMF” value [7] was “does not have any effect on PMF”.
